Laboratory results reported in PMC10873626, “Acceleration of infectious disease drug discovery and development using a humanized model of drug metabolism” (Proceedings of the National Academy of Sciences of the …, 2024).
Read-outs that look alike come from different tables or passages of the source.

Key:
M. tuberculosis H37Rv [1] = assay: Acute M. tuberculosis infection efficacy model in 8HUM (lung CFU); assay type: in vivo, Mycobacterium tuberculosis; details: 8HUM, efavirenz co-administration
in vivo [2] = details: female, 8HUM, mouse
CYP = details: cited from earlier work
in vivo [3] = details: female, C57BL/6J, mouse
M. tuberculosis H37Rv [4] = assay: Acute M. tuberculosis infection efficacy model in WT mice (lung CFU); assay type: in vivo, Mycobacterium tuberculosis; details: efavirenz co-administration
[5] = human, in vivo; cited from earlier work
CYP3A4 = assay: Hepatic CYP3A4 induction in 8HUM (Western blot); assay type: in vivo, mouse; details: efavirenz 20 and 40 mg/kg QD
Experimental: Microsomal samples were adjusted to 1 mg/mL in LDS sample buffer (Life Technologies) for loading of 10 µg total protein into each well and electrophoresis through 10% acrylamide gels for 1 h at 150 V, followed by transfer onto nitrocellulose membranes. Primary antibodies used for immunoblotting were anti-CYP3A4 (458234, BD Biosciences) and anti-GRP78 loading control (ab21685, Abcam). Pooled HLM material was the same as used in microsomal incubations. Loading control is not provided for Fig. 1B, as the comparison is between human and murine samples.
Mouse hepatic microsomes were prepared by homogenization of freshly-isolated liver in ice-cold SET buffer (0.25 M sucrose, 5 mM EDTA, and 20 mM Tris-HCL, pH 7.4) to make a 10% (w/v) homogenate solution (9 ml SET buffer/1 g liver) using a Polytron PT-MR-2100 homogenizer. Liver homogenates were centrifuged at 2000 rpm (Sorvall RTH-250 rotor) for 10 minutes at 4 °C and the supernatant then centrifuged at 12000 rpm (Sorvall SS-34 rotor) for 20 minutes at 4 °C. The resulting supernatant was centrifuged at 29130 rpm (Sorvall TFT-45.6 rotor) for 90 minutes at 4 °C and the microsomal pellets were resuspended in ice-cold SET buffer for storage at –70 °C.
Primary hepatocytes were freshly prepared from 8HUM using a modified version of Charni-Natan and Goldstein’s STAR Protocol(1). Following termination by cervical dislocation and femoral vessel cut […]

[6] = microsomes
[7] = mouse, in vivo
M. tuberculosis = details: cited from earlier work
[8] = mouse, microsomes
[9] = human, 30 min, 5 µM, pH 7.4
[10] = mouse, hepatocytes
in vivo [11] = details: female, 8HUM, mouse, po
in vivo [12] = details: female, mouse, po
[13] = hepatocytes
[14] = mouse, microsomes; remark: listed apart in the source
[15] = mouse, hepatocytes; remark: listed apart in the source

Q: Which results are given for COc1nc2ccc(Br)cc2cc1[C@@H](c1ccccc1)[C@@](O)(CCN(C)C)c1cccc2ccccc12 [Bedaquiline]?
A: impact of efavirenz on efficacy of bedaquiline (M. tuberculosis H37Rv [1]): no impact; AUC(0-t) (in vivo [2]): 19100 ng·h/mL; CYP interaction: Substrate (CYP): 3A4; AUC(0-t) (in vivo [3]): 2930 ng·h/mL; decrease in efficacy of bedaquiline with efavirenz (M. tuberculosis H37Rv [4]): 1.3 log CFU; terminal half-life [5]: 5.5 mo

Q: Which “CYP interaction: Inducer” value (CYP) does the source give for O=C1Nc2ccc(Cl)cc2[C@@](C#CC2CC2)(C(F)(F)F)O1 [Efavirenz] here?
A: The value was 3A4.

Q: What about the “CYP interaction: Substrate” value (CYP) of the same compound?
A: Its value is 2B6.

Q: What about the “induction of hepatic CYP3A4” value (CYP3A4) of the same compound?
A: The value was “approximately threefold”.

Q: What about the “CLint, Human” value [6] of the same compound?
A: The value was 0.5 mL/min/g liver.

Q: Which “impact of efavirenz on PK” value [7] does the source give for CNCC[C@@](O)(c1cccc2ccccc12)[C@H](c1ccccc1)c1cc2cc(Br)ccc2nc1OC [NDM-bedaquiline, N-desmethyl bedaquiline] here?
A: The value was “little impact”.

Q: And the “potency of metabolite relative to parent compound” value (M. tuberculosis)?
A: Its value is “approximately fivefold less potent”.

Q: What does the source list for Cc1c(O)cccc1C(=O)N[C@@H](CSc1ccccc1)[C@H](O)CN1C[C@H]2CCCC[C@H]2C[C@H]1C(=O)NC(C)(C)C [Nelfinavir]?
A: CLint, WT [8]: 50 mL/min/g liver; metabolites detected [9]: 18; CYP interaction: Inhibitor (CYP): 3A4; CLint, Human [6]: 50 mL/min/g liver

Q: Which “CLint, 8HUM” value [10] does the source give for CO[C@H]1/C=C/O[C@@]2(C)Oc3c(C)c(O)c4c(c3C2=O)C2=NC3(CCN(CC(C)C)CC3)NC2=C(NC(=O)/C(C)=C\C=C\[C@H](C)[C@H](O)[C@@H](C)[C@@H](O)[C@@H](C)[C@H](OC(C)=O)[C@@H]1C)C4=O [Rifabutin] here?
A: Its value is 0.7 mL/min/g liver.

Q: And the CL/F (in vivo [11])?
A: The CL/F was 4.03 mL/min/kg.

Q: And the CL/F (in vivo [12])?
A: Its CL/F is 24.8 mL/min/kg.

Q: And the “CLint, Human” value [13]?
A: Its value is 1 mL/min/g liver.

Q: What about the “CLint, CypC4KO” value [14] of the same compound?
A: The value was 0.5 mL/min/g liver.

Q: And the “CYP interaction: Substrate” value (CYP)?
A: Its value is 3A4.

Q: What about the “CLint, WT” value [15] of the same compound?
A: The value was 0.5 mL/min/g liver.

Q: What about the “CLint, Human” value [6] of the same compound?
A: Its value is 1.1 mL/min/g liver.
